The source of these data is PubChem BioAssay AID330 (DTP/NCI, 2004).

The test relates to P388 leukemia ip, CD2F1 mice, survival T/C. As to the kind of experiment: NCI In Vivo Anticancer Drug Screen. Data for tumor model P388 Leukemia (intraperitoneal) in CD2F1 (CDF1) mice. The conditions noted are these: endpoint: median survival time, higher = longer survival. The procedure, abridged: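 Mice carrying the transplanted tumor received test compound or vehicle. Survival was recorded in each group, and the value is the treated-group measurement divided by that of the vehicle-treated control group.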

[1] abbreviates: dose: 60.0 mg/kg/injection, schedule: Q01DX005 (ip), vehicle: Klucel (hydroxypropylcellulose) (HPC).
The mark [2] stands for this setting: dose: 120.0 mg/kg/injection, schedule: Q01DX005 (ip), vehicle: Klucel (hydroxypropylcellulose) (HPC).
The mark [3] stands for this setting: dose: 50.0 mg/kg/injection, schedule: Q01DX009 (ip), vehicle: saline with Tween-80.
The mark [4] stands for this setting: dose: 100.0 mg/kg/injection, schedule: Q01DX009 (ip), vehicle: saline with Tween-80.
[5] abbreviates: dose: 50.0 mg/kg/injection, schedule: Q01DX005 (ip), vehicle: saline with Tween-80.
Setting [6] is: dose: 100.0 mg/kg/injection, schedule: Q01DX005 (ip), vehicle: saline with Tween-80.
Setting [7] is: dose: 100.0 mg/kg/injection, schedule: Q04DX002 (ip), vehicle: saline with Tween-80.
Setting [8] is: dose: 200.0 mg/kg/injection, schedule: Q01DX005 (ip), vehicle: saline with Tween-80.
The mark [9] stands for this setting: dose: 25.0 mg/kg/injection, schedule: Q01DX009 (ip), vehicle: other.
The mark [10] stands for this setting: dose: 50.0 mg/kg/injection, schedule: Q01DX009 (ip), vehicle: other.
Setting [11] is: dose: 100.0 mg/kg/injection, schedule: Q01DX009 (ip), vehicle: other.

“And” between values parts separate entries of the source, which are not always exact repeats. Equal values may be shown once. Inconclusive results and toxic doses are left out.

`CC(=O)N1C=CC(=Cc2ccccc2)C=C1`: the T/C reads like this: (dose: 50.0 mg/kg/injection, schedule: Q01DX009 (ip), vehicle: Klucel (hydroxypropylcellulose) (HPC)) 98 % of control; (dose: 100.0 mg/kg/injection, schedule: Q01DX009 (ip), vehicle: Klucel (hydroxypropylcellulose) (HPC)) 98 % of control; (dose: 200.0 mg/kg/injection, schedule: Q01DX009 (ip), vehicle: Klucel (hydroxypropylcellulose) (HPC)) 99 % of control.

As for `Cc1cc(C(O)(C(F)(F)F)C(F)(F)F)cc(C(O)(C(F)(F)F)C(F)(F)F)c1`, the T/C reads like this: (dose: 50.0 mg/kg/injection, schedule: Q01DX005 (ip), vehicle: Klucel (hydroxypropylcellulose) (HPC)) 100 % of control; (dose: 100.0 mg/kg/injection, schedule: Q01DX005 (ip), vehicle: Klucel (hydroxypropylcellulose) (HPC)) 91 % of control; (dose: 200.0 mg/kg/injection, schedule: Q01DX005 (ip), vehicle: Klucel (hydroxypropylcellulose) (HPC)) 97 % of control.

For `COC1=C(C#N)C(c2ccccc2)CC(N)=N1` (configuration not stated), the T/C by setting is: under setting [1], 112 % of control; under setting [2], 94 % of control.

In the case of `C=C1C(=O)OC2/C=C(/CO)C3(O)CC(O)C(C)(CC(OC(=O)/C(C)=C/C)C12)O3` (configuration not stated), the T/C (dose: 10.0 mg/kg/injection, schedule: Q01DX009 (ip), vehicle: saline with Tween-80) was 114 % of control and 117 % of control; the T/C (dose: 20.0 mg/kg/injection, schedule: Q01DX009 (ip), vehicle: saline with Tween-80) was 124 % of control.

Take `O=C1NC(=O)C([N+](=O)[O-])C(=O)N1`: the T/C (dose: 25.0 mg/kg/injection, schedule: Q01DX001 (ip), vehicle: saline) is 100 % of control and the T/C (dose: 50.0 mg/kg/injection, schedule: Q01DX001 (ip), vehicle: saline) is 108 % of control.

On to `CN(C)/C=N\c1ncnc2c1ncn2C1OC(CO)C(O)C1O` (configuration not stated), for which the T/C reads like this: (dose: 6.25 mg/kg/injection, schedule: Q01DX009 (ip), vehicle: saline with Tween-80) 104 % of control; (dose: 12.5 mg/kg/injection, schedule: Q01DX009 (ip), vehicle: saline with Tween-80) 98 % of control; (dose: 25.0 mg/kg/injection, schedule: Q01DX009 (ip), vehicle: saline with Tween-80) 102 % of control; under setting [3], 99 % of control; under setting [4], 95 % of control.

Take `CN1CCC(c2ccccc2)(C(O)(c2ccccc2)c2ccccc2)CC1`: the T/C runs as follows: (dose: 12.5 mg/kg/injection, schedule: Q01DX005 (ip), vehicle: saline with Tween-80) 90 % of control; (dose: 25.0 mg/kg/injection, schedule: Q01DX005 (ip), vehicle: saline with Tween-80) 100 % of control; under setting [5], 100 % of control and 111 % of control; under setting [6], 107 % of control.

In the case of `CSC(=S)/N=c1/sccn1C`, the T/C is, setting by setting: (dose: 25.0 mg/kg/injection, schedule: Q04DX002 (ip), vehicle: saline with Tween-80) 100 % of control; (dose: 50.0 mg/kg/injection, schedule: Q04DX002 (ip), vehicle: saline with Tween-80) 100 % of control; under setting [7], 99 % of control.

With `Cc1cc(N/N=C/c2c(C)n(C)n(-c3ccccc3)c2=O)c2cc3c(cc2n1)OCO3`, the T/C is 103 % of control (dose: 6.25 mg/kg/injection, schedule: Q01DX005 (ip), vehicle: Klucel (hydroxypropylcellulose) (HPC)); 113 % of control (dose: 12.5 mg/kg/injection, schedule: Q01DX005 (ip), vehicle: Klucel (hydroxypropylcellulose) (HPC)); 108 % of control (dose: 25.0 mg/kg/injection, schedule: Q01DX005 (ip), vehicle: Klucel (hydroxypropylcellulose) (HPC)).

For `C1=CCONC1`, the T/C (dose: 50.0 mg/kg/injection, schedule: Q04DX003 (ip), vehicle: saline) was 93 % of control; the T/C (dose: 100.0 mg/kg/injection, schedule: Q04DX003 (ip), vehicle: saline) was 104 % of control; the T/C (dose: 200.0 mg/kg/injection, schedule: Q04DX003 (ip), vehicle: saline) was 92 % of control.

As to `c1ccc(-n2nc3c(c2-c2cccnc2)Cc2ccccc2-3)cc1`, the T/C reads like this: under setting [5], 101 % of control; under setting [6], 100 % of control; under setting [8], 98 % of control.

Consider `C=C1C(=O)C23CC1CCC2C12COC(OC(=O)CCCCCCCCCCC)C1C(C)(C)C(O)CC2OC3=O` (configuration not stated), for which the T/C (dose: 7.5 mg/kg/injection, schedule: Q01DX009 (ip), vehicle: saline with Tween-80) was 103 % of control; the T/C (dose: 15.0 mg/kg/injection, schedule: Q01DX009 (ip), vehicle: saline with Tween-80) was 95 % of control; the T/C (dose: 30.0 mg/kg/injection, schedule: Q01DX009 (ip), vehicle: saline with Tween-80) was 103 % of control; the T/C (dose: 60.0 mg/kg/injection, schedule: Q01DX009 (ip), vehicle: saline with Tween-80) is 103 % of control.

As to `CCN(CC)CCOc1cccc(NC(=O)CN(CC)CC)c1`, the T/C reads like this: (dose: 15.0 mg/kg/injection, schedule: Q01DX005 (ip), vehicle: Klucel (hydroxypropylcellulose) (HPC)) 106 % of control; (dose: 30.0 mg/kg/injection, schedule: Q01DX005 (ip), vehicle: Klucel (hydroxypropylcellulose) (HPC)) 103 % of control; under setting [1], 105 % of control and 96 % of control.

`C1=C[N-]c2c3c(ccc2=C1)=CC=C[N-]3.C1=C[N-]c2c3c(ccc2=C1)=CC=C[N-]3.C1=C[N-]c2c3c(ccc2=C1)=CC=C[N-]3.[Co+3].[O-][Cl+3]([O-])([O-])O`: the T/C (dose: 7.5 mg/kg/injection, schedule: Q01DX005 (ip), vehicle: saline with Tween-80) is 98 % of control; the T/C (dose: 15.0 mg/kg/injection, schedule: Q01DX005 (ip), vehicle: saline with Tween-80) is 98 % of control; the T/C (dose: 30.0 mg/kg/injection, schedule: Q01DX005 (ip), vehicle: saline with Tween-80) was 104 % of control.

On to `CC(C)CC(NC(=O)CNC(=O)/C=C/c1ccco1)C(N)=O` (configuration not stated), for which the T/C is 106 % of control under setting [5], 102 % of control under setting [6] and 90 % of control under setting [8].

`CCCCCCCC(=O)NC1CC(O[C@H]2C[C@](O)(C(=O)CO)Cc3c(O)c4c(c(O)c32)C(=O)c2c(OC)cccc2C4=O)OC(C)C1O` (some centres not stated): the T/C was 153 % of control (dose: 6.25 mg/kg/injection, schedule: Q01DX009 (ip), vehicle: other); 177 % of control (dose: 12.5 mg/kg/injection, schedule: Q01DX009 (ip), vehicle: other); 184 % of control under setting [9]; 155 % of control under setting [10]; 86 % of control under setting [11].

On to `COC(=O)C(=O)C(C#N)c1ccc(OC)c(OC)c1` (configuration not stated), for which the T/C was 99 % of control (dose: 60.0 mg/kg/injection, schedule: Q01DX005 (ip), vehicle: saline with Tween-80); 104 % of control (dose: 120.0 mg/kg/injection, schedule: Q01DX005 (ip), vehicle: saline with Tween-80); 95 % of control (dose: 240.0 mg/kg/injection, schedule: Q01DX005 (ip), vehicle: saline with Tween-80).

As for `O=C(O)CS(=O)(=O)CCCCCS(=O)(=O)CC(=O)O`, the T/C (dose: 50.0 mg/kg/injection, schedule: Q01DX009 (ip), vehicle: saline) was 106 % of control; the T/C (dose: 100.0 mg/kg/injection, schedule: Q01DX009 (ip), vehicle: saline) was 104 % of control; the T/C (dose: 200.0 mg/kg/injection, schedule: Q01DX009 (ip), vehicle: saline) was 105 % of control.

For the compound `COc1ccc(CC(=O)Nc2ccc(OC)c(OC)c2)cc1OC`, the T/C runs as follows: under setting [9], 92 % of control; under setting [10], 91 % of control; under setting [11], 95 % of control; (dose: 200.0 mg/kg/injection, schedule: Q01DX009 (ip), vehicle: other) 87 % of control; (dose: 400.0 mg/kg/injection, schedule: Q01DX009 (ip), vehicle: other) 92 % of control.

Take `Oc1cccnc1[Se]`: the T/C is 112 % of control under setting [1]; 106 % of control under setting [2]; 110 % of control (dose: 240.0 mg/kg/injection, schedule: Q01DX005 (ip), vehicle: Klucel (hydroxypropylcellulose) (HPC)).

For the compound `OC1Cc2ccccc2CC1NC1CCCCC1` (configuration not stated), the T/C was 108 % of control (dose: 50.0 mg/kg/injection, schedule: Q01DX005 (ip), vehicle: saline) and 98 % of control (dose: 100.0 mg/kg/injection, schedule: Q01DX005 (ip), vehicle: saline).

On to `OC(c1cc(C(F)(F)F)nc2c(Cl)cc(Cl)cc12)C1CCCCN1` (configuration not stated), for which the T/C is 105 % of control under setting [3] and 106 % of control under setting [4].

As to `CS/C(N)=N/NC(=O)CCC(=O)Nc1cc(Cl)c(Cl)cc1Cl`, the T/C is, setting by setting: under setting [7], 102 % of control; (dose: 200.0 mg/kg/injection, schedule: Q04DX002 (ip), vehicle: saline with Tween-80) 100 % of control; (dose: 400.0 mg/kg/injection, schedule: Q04DX002 (ip), vehicle: saline with Tween-80) 96 % of control.
